Measurements as given in patent US20190048052A1, “ANTI-MICROBIAL PEPTIDES AND COATINGS” (Board of Regents of the University of Nebraska, priority 2016, published 2019).
≈ marks a conversion by molar mass, not a printed value. Residues, ends and D or L forms follow the SMILES beside them.

How the values were obtained:
[1] = tested on: S. aureus USA300; assay type: cell-based, Staphylococcus aureus; conditions: Table 2, first S. aureus USA300 column
In short: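 Broth microdilution: exponential-phase bacteria at 10^6 CFU incubated with serially diluted peptides ~20 hours at 37° C, read at 630 nm to give MICs. For S. aureus USA300, effects of up to 10% human serum, pH 6.8/7.4/8.0 and 150 mM NaCl also tested.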

[2] = tested on: B. megaterium; conditions: Abbassi et al. (2010); cited from earlier work
[3] = tested on: E. coli ATCC 25922 and ML-35p strains; conditions: Abbassi et al. (2010); cited from earlier work
[4] = tested on: S. aureus ATCC 25923; conditions: Abbassi et al. (2010); cited from earlier work
[5] = tested on: E. coli ATCC 35218; conditions: Abbassi et al. (2010); cited from earlier work
[6] = tested on: E. coli ATCC 25922; assay type: cell-based, Escherichia coli; conditions: ATCC 25922, 20 h
Experimental: (§1) The antimicrobial activity of peptides was evaluated using a standard broth microdilution protocol. In brief, exponential phase bacteria at 10^6 CFU were incubated with serially diluted peptides overnight for ˜20 hours at 37° C. The plates were read on a ChroMate® 4300 Microplate Reader at 630 nm (GMI, Ramsey, Minn.).

[7] = tested on: S. aureus USA300; assay: Growth inhibition in TSB media (FIG. 15A); assay type: cell-based, Staphylococcus aureus; conditions: 3.1 μM (printed 3.1 LM), 37° C.
Experimental: FIGS. 15A and 15B show the growth inhibition (FIG. 15A) and propidium iodide-based membrane permeation (FIG. 15B) of S. aureus USA300 in TSB media by 3.1 μM of TetraF2W-RR and its single arginine variants (Table 8) at 37° C. with shaking at 100 rpm.
Fluorescence spectroscopy was also used to follow bacterial killing. In brief, μL of serially diluted 10× peptide concentrations were done in 96-well coming COSTAR microtiter plates. Propidium iodide at a fixed concentration of 20 μM per well was added to each well which was finally incubated with 88 μL of S. aureus USA300 (with a final OD600 0.1) with continuous shaking at 100 rpm with meander corner well shaking, 37° C. in a FLUOstar® Omega (BMG LABTECH Inc., NC) microplate reader. The plates were read every 5 minutes for a total duration of 2 hours with excitation and emission wavelengths at 584 nm and 620 nm, respectively.

[8] = tested on: S. aureus USA300; assay type: cell-based, Staphylococcus aureus
Experimental: as §1

[9] = tested on: human red blood cells; assay: Hemolytic ability (Example 3); assay type: cell-based; conditions: concentration that causes 50% hemolysis
Experimental: Hemolytic analysis of selected peptides was performed using an established protocol. Briefly, human blood cells (UNMC Blood Bank) were washed three times with phosphate buffer saline (PBS) and diluted to a 2% solution. After peptide treatment, incubation at 37° C. for one hour, and centrifugation at 13,000 rpm, aliquots of the supernatant were transferred to a fresh 96-well microplate. To assess peptide cytotoxicity, the amount of hemoglobin released was measured at 545 nm. The percent lysis was calculated by assuming 100% release when human blood cells were treated with 1% TRITON™ X-100, and 0% release when incubated with PBS buffer.

[10] = tested on: S. aureus USA300; assay type: cell-based, Staphylococcus aureus; conditions: 12.5 μM
Experimental: Two types of experiments were conducted to evaluate the anti-biofilm activity of these peptides against S. aureus USA300 grown under a static condition for 24 hours to form established biofilms in presence of tryptic soy broth (TSB). The experiment was set up using a flat bottom, 96-well, polystyrene microtiter plates (Corning, COSTAR). In short, S. aureus USA300 (10^5 CFU/mL) in fresh TSB media was made from an exponentially growing culture. 200 μL of this bacterial culture was added to each well of the microtiter plates. The plates are then incubated at 37° C. for 24 hours to allow biofilm formation. Media was then carefully removed followed by washing with sterile 1×PBS to remove any unattached bacteria. Solution containing μL of 10× peptide solution and 180 μL of fresh TSB were added. The plates were again incubated at 37° C. for another 24 hours. To measure the extent of biofilm disruption by the peptides as a function of biofilm reduction, crystal violet staining was performed. Media was pipetted out and the wells were carefully washed with 200 μL of PBS to remove the loosely attached cells. Subsequently, 200 μL of 99% methanol was added for fixation and the plates were allowed to sit for 15 minutes. The plates were finally aspirated and dried. Lastly, staining was done with 200 μL of 1% crystal violet in water for 5 minutes. Excess stain was gently rinsed off with tap water, and plates were air-dried. Further, stains were solubilized in 200 μL of 33% glacial acetic acid followed by colorimetric measurement at 600 nm on a Chromate® microtiter plate reader. The amounts of biofilm growth with and without compound treatments were calculated.
In addition, live cell contents of the peptide acted biofilms was estimated by XTT [2,3-bis(2-methyloxy-4-nitro-5-sulfophenyl)-2H-tertazolium-5-carboxanilide]assay by following the manufacturer's instructions with modifications. A 10% XTT solution in TSB media was added to each well and the plates were again incubated for 2 hours at 37° C. Absorbance at 450 nm (only media with XTT containing wells served as the blank) was obtained using Chromate® microtiter plate reader. Percentage of biofilm reduction for the peptide was plotted assuming 100% biofilm growth is achieved on the bacterial wells without peptide treatment.

[11] = tested on: HeLa CCL-2 cells; assay: Cytotoxicity of PET-CysTetraF2W-RR (MTS); assay type: cell-based, human
Experimental: HeLa CCL-2 cells from American Type Culture Collection (ATCC) were maintained in DMEM high glucose media with 4 mM L-glutamine (NyClone) and 100 U/mL penicillin, 100 μg/mL streptomycin (pen/strep; p/s) (Life Technologies), and 10% (v/v) inactivated fetal bovine serum (FBS, NyClone), DMEM with 10% FBS, p/s. Cells were grown in 5% CO2 at 37° C. and were detached from culturing dish at 100% confluency using 0.025% trypsin-EDTA (NyClone) treatment, seeded (18,000 cells/well) in 24-well plates (Corning Life Science) and grown overnight in 200 μL DMEM media until 70% confluency. Then the old media were replaced with 500 μL of fresh DMEM media and continued to cultivate for 1 hour with the surfaces with or without peptides (1.0×1.0 cm). 200 μL of the liquid content of each well was taken out and mixed with 20 μL of MTS. The plate was further incubated for another 2 hours at 37° C. To quantify the cytotoxicity, 100 μL of the solution was placed in a 96-well plate and the absorbance was measured on a ChroMate® reader (Awareness Technology) at 492 nm. For comparison, the same amounts of soluble peptides was used to treat them in the same way as described above. Water and 0.2% SDS were used as negative and positive controls, respectively.

For `CC[C@H](C)[C@H](NC(=O)[C@H](CCCNC(=N)N)NC(=O)[C@H](CO)NC(=O)[C@H](CC(C)C)NC(=O)[C@H](Cc1ccccc1)NC(=O)[C@H](Cc1ccccc1)NC(=O)[C@@H](N)Cc1ccccc1)C(=O)N[C@@H](Cc1ccccc1)C(N)=O` [Temporin-SHf, FFFLSRIF] (H-FFFLSRIF-NH2; N-terminus and C-terminus assumed), the “MIC S. aureus USA300” value [1] is listed as 25 µM (≈ 26.9 µg/mL), the “MIC B. megaterium” value [2] is listed as 3 µM (≈ 3.23 µg/mL) and the “MIC E. coli ATCC 25922 and ML-35p strains” value [3] is listed as 25 to 30 µM. For the same compound, the “MIC S. aureus ATCC 25923” value [4] was 12.5 µM (≈ 13.4 µg/mL) and the “MIC E. coli ATCC 35218” value [5] was greater than 200 µM.

For `CC[C@H](C)[C@H](NC(=O)[C@H](CCCNC(=N)N)NC(=O)[C@H](CCCNC(=N)N)NC(=O)[C@H](CCCNC(=N)N)NC(=O)[C@H](Cc1c[nH]c2ccccc12)NC(=O)[C@H](Cc1c[nH]c2ccccc12)NC(=O)[C@@H](N)Cc1c[nH]c2ccccc12)C(=O)N[C@@H](Cc1c[nH]c2ccccc12)C(N)=O` [Peptide L4R, WWWRRRIW] (H-WWWRRRIW-NH2; N-terminus assumed), the “E. coli (MIC)” value [6] was 25 µM, the “growth inhibition of S. aureus USA300” value [7] was “also potent” and the “loss in activity compared to the WT” value ([8]; MRSA USA300) was “four-fold”. The “S. aureus (MIC)” value ([8]; S. aureus USA300) was 12.5 µM, the HL50 [9] was greater than 200 µM and the “killing in preformed biofilms (XTT)” value [10] was 20%.

With `CC[C@H](C)[C@H](NC(=O)[C@H](CCCNC(=N)N)NC(=O)[C@H](CCCNC(=N)N)NC(=O)[C@H](CC(C)C)NC(=O)[C@H](Cc1c[nH]c2ccccc12)NC(=O)[C@H](Cc1c[nH]c2ccccc12)NC(=O)[C@H](Cc1c[nH]c2ccccc12)NC(=O)[C@@H](N)CS)C(=O)N[C@@H](Cc1c[nH]c2ccccc12)C(N)=O` [CysTetraF2W-RR] (H-CWWWLRRIW-NH2; N-terminus and C-terminus assumed) the “toxicity to HeLa CCL-2 cells” value [11] was “nontoxic”.
